In US10351915B2 (Berg LLC, priority 2009, dated 2019):

How the values were obtained:
[1] = one study with rats; cited from earlier work
HASMC cells = assay: Extracellular acidification rate (ECAR), SeaHorse XF analyzer; type: cell-based, human; details: hyperglycemic, hypoxic conditions
Source text: (SeaHorse Biosciences Inc, North Billerica, Mass.).
In this experiment, the OCR and extracellular acidification rate (ECAR) in normal cells lines were obtained in the presence and absence of CoQ10 to determine baseline values. It was observed that in its native nutrient environment, the basal OCR rates in normal cells lines are different, and are usually a function of the physiological roles of the cells in the body.
In Table 128 the measured baseline ECAR values (mpH/min) in HASMC were higher compared to that of HDFa. Induction of hypoxic conditions caused an increase in ECAR most likely associated with intracellular hypoxia induced acidosis secondary to increased glycolysis.

Bcl2 = Bcl2 level after CoQ-10 in the presence of VEGF; type: cell-based; details: normal fibroblast, co-administration with VEGF
skin cancer cells = skin cancer cells vs normal cells; cited from earlier work
SCC cells [2] = assay: Real-time PCR Apoptosis Array; type: cell-based
Source text: (§1) The control cells were untreated cells.
RNA was quantified by measuring Optical Density at 260 nm.

PC-3 = assay: Nexin assay for apoptosis (flow cytometry); type: cell-based; details: 50 μM and 100 μM Q10, 24 hours
Source text: (§2) The 7AAD dye will enter into cells with permeabilized cell membranes; primarily those cells that are in late apoptosis. Annexin-V-PE is a dye that binds to Phosphotidyl serine, which is exposed on the outer surface of the plasma membrane in early apoptotic cells. The Nexin reagent thus can be used to differentiate between different populations of apoptotic cells in a flow cytometer.

SK-MEL28 = assay: Nexin assay for apoptosis (flow cytometry); type: cell-based; details: 50 μM and 100 μM Q10, 24 hours
Source text: as §2

PaCa2 = assay: Nexin assay for apoptosis (flow cytometry); type: cell-based; details: 50 μM and 100 μM Q10, 24 hours
Source text: as §2

MCF-7 = assay: Nexin assay for apoptosis (flow cytometry); type: cell-based; details: 50 μM and 100 μM Q10, 24 hours
Source text: as §2

SCC cells [3] = assay: Real-time PCR Diabetes Array; type: cell-based
Source text: as §1

a variety of cell types = assay: Western blot analysis (Bcl-xL, Vimentin, oxidative phosphorylation and mitochondrial membrane proteins); type: cell-based; details: 50 or 100 μM Q10
Procedure: Approximately 50 μg of protein were assayed per sample by immunoblotting. All treatments were run in triplicate with controls. […] The primary antibodies were incubated overnight at 4 degrees C. in a 5% BSA and TBST solution. Secondary antibodies were incubated for one hour at 4 degrees. All antibodies were purchased from Cell Signaling Technology. Antibodies were used at a ratio of 1:1000, with the exception of βActin at a ratio of 1:5000. Blots were developed and results were quantified using the NIH Java based densitometer analysis software Image J. All blots were also probed for and normalized to their respective βActin expression.
The first experiment processed and evaluated by Western blot and 2-D gel electrophoresis was carried out on the skin cancer cell line SKMEL-28.
A variety of cell types were evaluated by Western blot analysis against an antibody for Bcl-xL (FIG. 14), an antibody for Vimentin (FIG. 15), a series of antibodies for mitochondrial oxidative phosphorylation function (FIGS. 16-21) and against a series of antibodies related to mitochondrial membrane integrity (FIGS. 22-27).

[4] = system: HepG2 (liver cancer) cells; assay: PCR Diabetes Array; type: cell-based; details: 100 μM Q10, 48 hours
Procedure: The treatment was initiated on 1×10^5 cells per well, following the procedure utilized in the PaCa2 cells (above, Examples 9-11). However, the total amount of RNA that was extracted from these samples was lower than expected. Reverse transcription is normally done using 1 μg total RNA (determined by measurement at 260 nm). The maximum volume that can be used per reverse transcription is 8 μl.

SKMEL-28 cells = assay: 2-D gel electrophoresis proteomic analysis; type: cell-based
Procedure: For isolation of proteins, cells were washed three times with 5 mL of ice cold PBS at a pH of 7.4. The cells were then scraped in 3 mL of PBS, pelleted by centrifuge, and re-suspended in a lysis buffer at pH 7.4 (80 mM TRIS-HCl, 1% SDS, with protease and phosphotase inhibitors). Protein concentrations were quantified using the BCA method.
The gels were run in duplicate.
The first experimental set processed and evaluated by Western blot and 2-D gel electrophoresis was the skin cancer cell line SKMEL-28.
A comparative analysis of 943 spots across all twenty-four gels was performed, comparing the control sample against all of the treated samples. The analysis included the identification of spot changes over the time course due to increase, decrease, or post-translational modification.
The analysis found thirty-two statistically significant differential spot changes. […] The characterized peptides were searched against protein databases with Mascot and MSRAT software analysis to identify the protein (Table 2).

COC1=C(OC)C(=O)C(C/C=C(\C)CC/C=C(\C)CC/C=C(\C)CC/C=C(\C)CC/C=C(\C)CC/C=C(\C)CC/C=C(\C)CC/C=C(\C)CC/C=C(\C)CCC=C(C)C)=C(C)C1=O [Q10, Coenzyme Q10]
orally-administered CoQ10 absorbed [1]: 2-3%
ECAR rates (HASMC cells): downward trend of ECAR rates
levels of Bcl2 (Bcl2): no effect on the levels of Bcl2
rate of apoptosis (skin cancer cells): increase the rate of apoptosis in a culture of skin cancer cells but not normal cells
Regulation (mRNA) (SCC cells [2]; 100 μM Q10, at 6 hours): Down regulated at 6 hours
Regulation (mRNA) (SCC cells [2]; 100 μM Q10, at 24 hours, BAX mRNA): Up regulated at 24 hours.
Regulation (mRNA) (SCC cells [2]; 100 μM Q10, at 24 hours, BNIP3 mRNA): Down regulated at 24 hours.
early and late apoptotic population (PC-3): an increase in both early and late apoptotic population
apoptotic population (SK-MEL28): an increase only in early apoptotic population
increase in both early and late apoptotic cells (PaCa2): 5-10 % of gated cells
apoptotic population (MCF-7): an increase only in early apoptotic population
Regulation (mRNA) (SCC cells [3]; 100 μM Q10, at 6 and 24 hours): Down regulated at 6 and 24
Regulation (mRNA) (SCC cells [3]; 100 μM Q10, at 6 hours): Down regulated at 6 hours.
levels of examined proteins (a variety of cell types): several of the examined proteins were upregulated or downregulated
PPARGCIA mRNA [4]: normalized or were slightly upregulated
Expression (2D spot) (SKMEL-28 cells; 3 hr, 50 uM Q10): down
Expression (2D spot) (SKMEL-28 cells; 3 hr, 100 uM Q10): down
Expression (2D spot) (SKMEL-28 cells; 6 hr, 50 uM Q10, protein EIF6): up
Expression (2D spot) (SKMEL-28 cells; 6 hr, 50 uM Q10, protein LMNB1): down
Expression (2D spot) (SKMEL-28 cells; 6 hr, 100 uM Q10, protein EIF6): down
Expression (2D spot) (SKMEL-28 cells; 6 hr, 100 uM Q10, protein VIM): up
Expression (2D spot) (SKMEL-28 cells; 12 hr, 50 uM Q10, protein LGALS1): down
Expression (2D spot) (SKMEL-28 cells; 12 hr, 50 uM Q10, protein PDCD6IP): up
Expression (2D spot) (SKMEL-28 cells; 12 hr, 100 uM Q10): up
Expression (2D spot) (SKMEL-28 cells; 24 hr, 50 uM Q10): down
